# Assays:
# [1] = system: human somatostatin receptor 5; parameters: method as in PMID 7988476; conditions: selective somatostatin receptor subtype agonist; cited from earlier work
# [2] = cited from earlier work
# Text: Somatostatin analogs (SSAs) are the preferred type of medical therapy used to reduce GH secretion. Patients who have persistent disease following surgical resection are recommended treatment with the first-generation long acting SSAs, octreotide long-acting release (LAR) or lanreotide autogel. Lanreotide is a synthetic octapeptide analog of natural somatostatin with a longer half-life (t½) than the native molecule, and a selective somatostatin receptor subtype agonist with a high affinity for human somatostatin receptors 2 and 5 [5], which are commonly expressed at both the mRNA [6] ... || Steady-state PK was achieved after the administration of four lanreotide autogel doses. […] Similarly, Bronstein and colleagues reported a steady state Cmin (equivalent to Ctrough) of 3.76 ng/mL [19].
# [3] = system: human somatostatin receptor 2; parameters: method as in PMID 7988476; conditions: selective somatostatin receptor subtype agonist; cited from earlier work
# [4] = Serum lanreotide pharmacokinetics (non-compartmental); format: in vivo, human; conditions: lanreotide autogel; fourth titrated dose 120 mg normalized to 90 mg vs first dose of 90 mg; PK subgroup
# Description: Lanreotide autogel – pre-dose serum samples were taken at weeks 1, 13, 17, and 29; sampling around 4 h after treatment at weeks 13 and 17 and at the end of study (Week 33)/early withdrawal visit. For a subset of patients in the PK subgroup, additional samples were taken during the study and during the PK extension phase: after the first administration of 90 mg at Week 1 (1, 4, 6, 8, 12, 24, and 72 h), Week 2 (168 h), Week 3 (336 h), Week 4 (504 h) and prior to the next administration at Week 5 (672 h); after the fourth (last) administration of the titrated dose at Week 29 (1, 4, 6, 8, 12, 24, and 72 h), Week 30 (168 h), Week 31 (336 h), Week 32 (504 h), and at Week 37 (1344 h) and Week 41 (2016 h).
# Lanreotide 40 mg PR – pre-dose serum samples were taken at weeks 1, 2, 13, 16, and at the end-of-study/early withdrawal visit (all taken shortly before treatment) for all patients.
# PK endpoints included trough lanreotide concentrations (Ctrough i.e. observed serum concentration at the end of the dosing interval) prior to the fourth, fifth and eighth administrations and at the end-of-study treatment visit with lanreotide autogel, and prior to the second, tenth and twelfth administrations and at the end-of-study visit with lanreotide 40 mg PR. Following a similar approach as reported by Bronstein and colleagues, a non-compartmental PK analysis was performed for the lanreotide autogel PK subgroup to provide individual PK parameters over a 4-week dosing interval after the first and last administration of study drug (i.e. steady state): maximum plasma concentration (Cmax), time to maximum plasma concentration (tmax), area under the concentration–time curve over a 4-week dosing interval (AUCtau), Ctrough and elimination t½ [19].
# Additional parameters were estimated, comparing lanreotide PK after Week 1 and Week 29 after normalization to a dose of 90 mg: accumulation ratio for Ctrough (Rtrough) = Ctrough,Week 29/Ctrough,Week 1; accumulation ratio for Cmax (Rmax) = Cmax,Week 29/Cmax,Week 1; accumulation ratio for AUCtau (RAUC) = AUCtau, Week 29/AUCtau, Week 1.
compound,measurement,setting,value
CC(C)[C@@H]1NC(=O)[C@H](CCCCN)NC(=O)[C@@H](Cc2c[nH]c3ccccc23)NC(=O)[C@H](Cc2ccc(O)cc2)NC(=O)[C@@H](NC(=O)[C@H](N)Cc2ccc3ccccc3c2)CSSC[C@@H](C(=O)N[C@H](C(N)=O)[C@@H](C)O)NC1=O [lanreotide],Affinity for human somatostatin receptor 5,[1],high affinity
same,Half-life (t½) compared with the native molecule (natural somatostatin),[2],longer
same,Affinity for human somatostatin receptor 2,[3],high affinity
same,"Mean RAUC (accumulation ratio for AUCtau, Week 29/Week 1)",[4],2.33
same,"Mean Rmax (accumulation ratio for Cmax, Week 29/Week 1)",[4],1.40
same,"Mean Rtrough (accumulation ratio for Ctrough, Week 29/Week 1)",[4],2.62
